ChEMBL document CHEMBL1154128, “Characterization of the microbial community and polyketide biosynthetic potential in the palmerolide-producing tunicate Synoicum adareanum” (2008)

Test system: UACC-62
Assay: Cytotoxicity against human UACC62 cells
Format: functional
Conditions: read-out: LC50 (the source's name)

Compound: CC(C)=CC(=O)N/C=C/C(C)=C/[C@@H](C)[C@H]1C/C(C)=C/C=C/CC[C@H](OC(N)=O)[C@@H](O)/C=C/[C@@H](O)CCC/C=C/C(=O)O1 [PALMEROLIDE A]
- CC50: 18 nM
